Data reported in article PMC7279249, “Synthesis of Fmoc-Triazine Amino Acids and Its Application in the Synthesis of Short Antibacterial Peptidomimetics” (International Journal of Molecular Sciences, 2020).
≈ marks a conversion by molar mass, not a printed value. Where two headings read alike, the source gives them in different places. Peptide text beside a SMILES is read from it.

Tests used:
[1] = Analytical RP-HPLC retention time; format: physicochemical; settings: C18 4.6 mm × 250 mm, 0.05% aq. TFA (A) / 0.05% TFA in CH3CN (B), 5% to 95% B in 30 min, 1.0 mL/min, 25 °C, 280 nm, method A of the Supplementary Material
Protocol: As described previously, all reactions were performed under argon atmosphere in flame-dried glassware using dry solvents unless otherwise noted. Anhydrous organic solvents of purity greater than 99.9% were purchased from Aldrich and used directly in the reaction. All reagents and some of the starting materials were purchased from commercial chemical suppliers, including Sigma-Aldrich, TCI, and Across Organics and used as received. Analytical thin-layer chromatography (TLC) was performed on Merck aluminum sheets with silica gel 60 F254 using 0.25 mm plates, and was visualized by ultraviolet light, staining with KMnO4 and ninhydrin. Column chromatography purification was performed on Merck silica gel 60 (70–230 mesh or 230–400 mesh). Bruker DRX-400 and DRX-500 NMR spectrometer were used for recording ^1H and ^13C NMR spectra. NMR chemical shifts (δ) are denoted in parts per million (ppm), and coupling constants (J) are given in hertz (Hz). MALDI-TOF mass was recorded using Shimadzu mass spectrometer. The crude peptidomimetics and peptides were purified by reverse-phase high-performance liquid chromatography (RP-HPLC) on Agilent HPLC system equipped with a C18 semi-preparative column (250 mm × 22 mm, 10 μm) using 0.05% aq. trifluoroacetic acid (TFA) (eluent A) and 0.05% TFA in CH3CN (eluent B) were used with a flow rate of 5.0 mL/min at 25 °C, under wavelength 280 nm. Moreover, the purity of the peptide judged to be ≥ 95% pure by analytical HPLC equipped with a C18 column (4.6 mm× 250 mm, 10 μm). Two different linear gradients of 0.05% aq. TFA (eluent A) and 0.05% TFA in CH3CN (eluent B) (gradient method, 5% of eluent B to 95% of Eluent B in 30 min; injection volume, 10 µL; concentration 10 µmol) were used with a flow rate of 1.0 mL/min at 25 °C, under wavelength 280 nm.

[2] = tested on: P. aeruginosa (KCTC 1637)
Protocol: (§1) The bacterial cells were grown overnight for 18 h at 37 °C in 10 mL of Mueller Hinton broth (MHB). The 10 μL of this culture was inoculated into 10 mL of fresh MHB and incubated for an additional 3 h at 37 °C to obtain mid-logarithmic phase organisms. Aliquots (100 μL) of bacterial cell suspension at 4 × 10^6 CFU/mL in 1% peptone were added to 100 μL of the sample solutions (serial 2-fold dilutions in 1% peptone). […] The MIC values were determined after 18 h of incubation.

[3] = tested on: Staphylococcus epidermidis (KCTC 1917)
Protocol: as §1

E. coli (KCTC 1682) = tested on: E. coli (KCTC 1682)
Protocol: as §1

[4] = tested on: Staphylococcus aureus (KCTC 1621)
Protocol: as §1

[5] = tested on: trypsin (read-out E. coli KCTC 1682); format: in vitro ADME
Protocol: (§2) Digestion of the BJK-4 and melittin by trypsin was carried out using 100 μg/mL peptide and 0.4 μg/mL trypsin in PBS, at 37 °C for 2 h. The reaction solution (50 μL) was added to 150 μL of a bacterial suspension (2 × 10^6 CFU/mL in Mueller-Hinton broth). After incubation at 37 °C for 18 h, the bacterial growth inhibition was determined by measuring absorbance at 600 nm with a microplate ELISA reader (Bio-Tek; EL 800).

[6] = tested on: trypsin (read-out S. aureus KCTC 1621); format: in vitro ADME
Protocol: as §2

[7] = Gram-negative, serial 2-fold dilutions in 1% peptone, 1 to […], 18 h incubation, lowest concentration causing 100% inhibition of growth (no visible turbidity)
[8] = Gram-positive, serial 2-fold dilutions in 1% peptone, 1 to […], 18 h incubation, lowest concentration causing 100% inhibition of growth (no visible turbidity)

| SMILES | Rt, HPLC retention time [1] [min] | MIC, P. aeruginosa (KCTC 1637) ([2]; KCTC 1637, 18 h) [µg/mL] | MIC, Staphylococcus epidermidis (KCTC 1917) ([3]; KCTC 1917, 18 h) [µg/mL] | MIC, E. coli (KCTC 1682) (E. coli (KCTC 1682); KCTC 1682, 18 h) [µg/mL] | MIC, Staphylococcus aureus (KCTC 1621) ([4]; KCTC 1621, 18 h) [µg/mL] | MIC, P. aeruginosa (KCTC 1637) [2, 7] [µg/mL] | MIC, Staphylococcus epidermidis (KCTC 1917) [3, 8] [µg/mL] | MIC, E. coli (KCTC 1682) (E. coli (KCTC 1682); [7]) [µg/mL] | MIC, Staphylococcus aureus (KCTC 1621) [4, 8] [µg/mL] | Antimicrobial activity against E. coli after trypsin treatment ([5]; 100 μg/mL peptide, 0.4 μg/mL trypsin in PBS, 37 °C, 2 h, then E. coli KCTC 1682 in Mueller-Hinton broth, 18 h at 37 °C, absorbance 600 nm) | Antimicrobial activity against S. aureus after trypsin treatment ([6]; 100 μg/mL peptide, 0.4 μg/mL trypsin in PBS, 37 °C, 2 h, then S. aureus KCTC 1621 in Mueller-Hinton broth, 18 h at 37 °C, absorbance 600 nm) | Antimicrobial activity against E. coli after trypsin treatment [5] | Antimicrobial activity against S. aureus after trypsin treatment [6] |
| --- | --- | --- | --- | --- | --- | --- | --- | --- | --- | --- | --- | --- | --- |
| CC(=O)NCCNc1nc(NCC(N)=O)nc(N(CCCN)CCCN)n1 [BJK-1] | 8.8 | 128 (≈ 335 µM) | >128 | 128 (≈ 335 µM) | >128 | – | – | – | – | – | – | – | – |
| CC(=O)N[C@@H](CCCCN)C(=O)N[C@@H](Cc1c[nH]c2ccccc12)C(N)=O [BJK-7] (Ac-Lys-Trp-NH2) | 15.4 | 128 (≈ 343 µM) | >128 | 128 (≈ 343 µM) | >128 | – | – | – | – | – | – | – | – |
| CC(=O)NCCNc1nc(NCC(=O)NCCNc2nc(NCC(=O)NCCNc3nc(NCC(N)=O)nc(N(Cc4ccccc4)Cc4ccccc4)n3)nc(N(CCCN)CCCN)n2)nc(N(Cc2ccccc2)Cc2ccccc2)n1 [BJK-5] | 21.1 | 32 (≈ 27.6 µM) | 64 (≈ 55.1 µM) | 128 (≈ 110 µM) | 64 (≈ 55.1 µM) | – | – | – | – | – | – | – | – |
| CC(=O)N[C@@H](CCCCN)C(=O)N[C@@H](Cc1c[nH]c2ccccc12)C(=O)N[C@@H](CCCCN)C(N)=O [BJK-8] (Ac-Lys-Trp-Lys-NH2) | 14.2 | 128 (≈ 255 µM) | >128 | 64 (≈ 128 µM) | >128 | – | – | – | – | – | – | – | – |
| CC(=O)NCCNc1nc(NCC(N)=O)nc(N(Cc2ccccc2)Cc2ccccc2)n1 [BJK-2] | 21.8 | >128 | >128 | >128 | >128 | – | – | – | – | – | – | – | – |
| CC(=O)NCCNc1nc(NCC(=O)NCCNc2nc(NCC(=O)NCCNc3nc(NCC(=O)NCCNc4nc(NCC(N)=O)nc(N(Cc5ccccc5)Cc5ccccc5)n4)nc(N(CCCN)CCCN)n3)nc(N(Cc3ccccc3)Cc3ccccc3)n2)nc(N(CCCN)CCCN)n1 [BJK-6] | – | – | – | – | – | 16 (≈ 10.8 µM) | 16 (≈ 10.8 µM) | 16 (≈ 10.8 µM) | 16 (≈ 10.8 µM) | – | – | – | – |
| CC(=O)NCCNc1nc(NCC(=O)NCCNc2nc(NCC(N)=O)nc(N(Cc3ccccc3)Cc3ccccc3)n2)nc(N(CCCN)CCCN)n1 [BJK-3] | – | 32 (≈ 41.5 µM) | 32 (≈ 41.5 µM) | 64 (≈ 82.9 µM) | 32 (≈ 41.5 µM) | – | – | – | – | – | – | – | – |
| CC[C@H](C)[C@H](NC(=O)CN)C(=O)NCC(=O)N[C@@H](C)C(=O)N[C@H](C(=O)N[C@@H](CC(C)C)C(=O)N[C@@H](CCCCN)C(=O)N[C@H](C(=O)N[C@@H](CC(C)C)C(=O)N[C@H](C(=O)N[C@H](C(=O)NCC(=O)N[C@@H](CC(C)C)C(=O)N1CCC[C@H]1C(=O)N[C@@H](C)C(=O)N[C@@H](CC(C)C)C(=O)N[C@H](C(=O)N[C@@H](CO)C(=O)N[C@@H](Cc1c[nH]c2ccccc12)C(=O)N[C@H](C(=O)N[C@@H](CCCCN)C(=O)N[C@@H](CCCNC(=N)N)C(=O)N[C@@H](CCCCN)C(=O)N[C@@H](CCCNC(=N)N)C(=O)N[C@@H](CCC(N)=O)C(=O)N[C@@H](CCC(N)=O)C(N)=O)[C@@H](C)CC)[C@@H](C)CC)[C@@H](C)O)[C@@H](C)O)C(C)C)C(C)C [melittin, reference compound] | – | – | – | – | – | – | – | – | – | completely abolished | completely abolished | – | – |
| CC(=O)N[C@@H](Cc1c[nH]c2ccccc12)C(=O)N[C@@H](CCCCN)C(=O)N[C@@H](Cc1c[nH]c2ccccc12)C(N)=O [BJK-9] (Ac-Trp-Lys-Trp-NH2) | 19.6 | >128 | >128 | >128 | >128 | – | – | – | – | – | – | – | – |
| CC(=O)NCCNc1nc(NCC(=O)NCCNc2nc(NCC(=O)NCCNc3nc(NCC(N)=O)nc(N(CCCN)CCCN)n3)nc(N(Cc3ccccc3)Cc3ccccc3)n2)nc(N(CCCN)CCCN)n1 [BJK-4] | – | 16 (≈ 14.6 µM) | 16 (≈ 14.6 µM) | 16 (≈ 14.6 µM) | 16 (≈ 14.6 µM) | – | – | – | – | – | – | nearly preserved | nearly preserved |
| CC(=O)N[C@@H](CCCCN)C(=O)N[C@@H](Cc1c[nH]c2ccccc12)C(=O)N[C@@H](CCCCN)C(=O)N[C@@H](Cc1c[nH]c2ccccc12)C(N)=O [BJK-10] (Ac-KWKW-NH2) | 17.9 | – | – | – | – | >128 | >128 | >128 | >128 | – | – | – | – |
